Measured values taken from US20080114005A1, “Fibrate Compounds Having Ppar Agonist Activity” (Dr. Reddy's Laboratories Limited, priority 2004, published 2008).

Row | melting point | SMILES
1 | 187 to 189 °C | CCCc1nn(C)c2c(=O)n(CCNc3ccc(SC(C)(C)C(=O)O)cc3)c(CC)nc12 [Example 42, 2-{4-[2-(5-Ethyl-1-methyl-7-oxo-3-propyl-1,7-dihydro-pyrazolo[4,3-d]pyrimidin-6-yl)-ethylamino]-phenylsulfanyl}-2-methyl-propionic acid]
2 | 104 to 106 °C | CCCc1nn(C)c2c(=O)n(CCOc3ccc(SC(C)(C)C(=O)O)cc3)c(CC)nc12 [Example 44, 2-{4-[2-(5-Ethyl-1-methyl-7-oxo-3-propyl-1,7-dihydro-pyrazolo[4,3-d]pyrimidin-6-yl)-ethoxy]-phenylsulfanyl}-2-methyl-propionic acid]
3 | 85 to 87 °C | CCCc1nn(CC)c2c(=O)n(CCNc3ccc(SC(C)(C)C(=O)OCC)cc3)c(CC)nc12 [Example 47, 2-{4-[2-(1,5-Diethyl-7-oxo-3-propyl-1,7-dihydro-pyrazolo[4,3-d]pyrimidin-6-yl)-ethylamino]-phenylsulfanyl}-2-methyl-propionic acid ethyl ester]
4 | 143 to 145 °C | CCCc1nn(CC)c2c(=O)n(CCNc3ccc(SC(C)(C)C(=O)O)cc3)c(CC)nc12 [Example 48, 2-{4-[2-(1,5-Diethyl-7-oxo-3-propyl-1,7-dihydro-pyrazolo[4,3-d]pyrimidin-6-yl)-ethylamino]-phenylsulfanyl}-2-methyl-propionic acid]
5 | 123 to 125 °C | CCCc1nn(CC)c2c(=O)n(CCOc3ccc(SC(C)(C)C(=O)O)cc3)c(CC)nc12 [Example 50, 2-{4-[2-(1,5-Diethyl-7-oxo-3-propyl-1,7-dihydro-pyrazolo[4,3-d]pyrimidin-6-yl)-ethoxy]-phenylsulfanyl}-2-methyl-propionic acid]
6 | 85 to 87 °C | CCCc1nn(CC)c2c(=O)n(CCOc3ccc(SC(C)(C)C(=O)OCC)cc3)c(C)nc12 [Example 51, 2-{4-[2-(1-Ethyl-5-methyl-7-oxo-3-propyl-1,7-dihydro-pyrazolo[4,3-d]pyrimidin-6-yl)-ethoxy]-phenylsulfanyl}-2-methyl-propionic acid ethyl ester]
7 | 178 to 180 °C | CCCc1nn(CC)c2c(=O)n(CCOc3ccc(SC(C)(C)C(=O)O)cc3)c(C)nc12 [Example 52, 2-{4-[2-(1-Ethyl-5-methyl-7-oxo-3-propyl-1,7-dihydro-pyrazolo[4,3-d]pyrimidin-6-yl)-ethoxy]-phenylsulfanyl}-2-methyl-propionic acid]
8 | 155 to 157 °C | CCCc1nn(CC)c2c(=O)n(CCOc3ccc(SC(C)(CC)C(=O)O)cc3)c(C)nc12 (stereo not drawn) [Example 54, 2-{4-[2-(1-Ethyl-5-methyl-7-oxo-3-propyl-1,7-dihydro-pyrazolo[4,3-d]pyrimidin-6-yl)-ethoxy]-phenylsulfanyl}-2-methyl-butyric acid]
9 | 164 to 166 °C | CCOC(=O)C(C)(CC)Sc1ccc(OCCCn2c(C)nc3ccccc3c2=O)cc1 (stereo not drawn) [Example 55, 2-Methyl-2-{4-[3-(2-methyl-4-oxo-4H-quinazolin-3-yl)-propoxy]-phenylsulfanyl}-butyric acid ethyl ester]
10 | 130 to 132 °C | CCC(C)(Sc1ccc(OCCCn2c(C)nc3ccccc3c2=O)cc1)C(=O)O (stereo not drawn) [Example 56, 2-Methyl-2-{4-[3-(2-methyl-4-oxo-4H-quinazolin-3-yl)-propoxy]-phenylsulfanyl}-butyric acid]
11 | 144 to 146 °C | CCCc1nn(C)c2c(=O)n(CCOc3ccc(OC(C)(C)C(=O)O)cc3)cnc12 [Example 58, 2-Methyl-2-{4-[2-(1-methyl-7-oxo-3-propyl-1,7-dihydro-pyrazolo[4,3-d]pyrimidin-6-yl)-ethoxy]-phenoxy}-propionic acid]
12 | 98 to 100 °C | CCCc1nn(C)c2c(=O)n(CCOc3ccc(OC(C)(C)C(=O)OCC)cc3)c(C)nc12 [Example 59, 2-{4-[2-(1,5-Dimethyl-7-oxo-3-propyl-1,7-dihydro-pyrazolo[4,3-d]pyrimidin-6-yl)-ethoxy]-phenoxy}-2-methyl-propionic acid ethyl ester]
13 | 146 to 148 °C | CCCc1nn(C)c2c(=O)n(CCOc3ccc(OC(C)(C)C(=O)O)cc3)c(C)nc12 [Example 60, 2-{4-[2-(1,5-Dimethyl-7-oxo-3-propyl-1,7-dihydro-pyrazolo[4,3-d]pyrimidin-6-yl)-ethoxy]-phenoxy}-2-methyl-propionic acid]
14 | 88 to 90 °C | CCCc1nn(C)c2c(=O)n(CCNc3ccc(OC(C)(C)C(=O)O)cc3)c(C)nc12 [Example 62, 2-{4-[2-(1,5-Dimethyl-7-oxo-3-propyl-1,7-dihydro-pyrazolo[4,3-d]pyrimidin-6-yl)-ethylamino]-phenoxy}-2-methyl-propionic acid]
15 | 136 to 138 °C | CCCc1nn(C)c2c(=O)n(CCCOc3ccc(OC(C)(C)C(=O)O)cc3)cnc12 [Example 64, 2-Methyl-2-{4-[3-(1-methyl-7-oxo-3-propyl-1,7-dihydro-pyrazolo[4,3-d]pyrimidin-6-yl)-propoxy]-phenoxy}-propionic acid]
16 | 158 to 160 °C | CCCc1nn(C)c2c(=O)n(CCCOc3ccc(OC(C)(C)C(=O)O)cc3)c(C)nc12 [Example 66, 2-{4-[3-(1,5-Dimethyl-7-oxo-3-propyl-1,7-dihydro-pyrazolo[4,3-d]pyrimidin-6-yl)-propoxy]-phenoxy}-2-methyl-propionic acid]
17 | 104 to 106 °C | CCCc1nn(C)c2c(=O)n(CCCNc3ccc(OC(C)(C)C(=O)O)cc3)c(C)nc12 [Example 68, 2-{4-[3-(1,5-Dimethyl-7-oxo-3-propyl-1,7-dihydro-pyrazolo[4,3-d]pyrimidin-6-yl)-propylamino]-phenoxy}-2-methyl-propionic acid]
18 | 66 to 68 °C | CCCc1nn(C)c2c(=O)n(CCOc3ccc(OC(C)(C)C(=O)OCC)cc3)c(CC)nc12 [Example 69, 2-{4-[2-(5-Ethyl-1-methyl-7-oxo-3-propyl-1,7-dihydro-pyrazolo[4,3-d]pyrimidin-6-yl)-ethoxy]-phenoxy}-2-methyl-propionic acid ethyl ester]
19 | 108 to 110 °C | CCCc1nn(C)c2c(=O)n(CCOc3ccc(OC(C)(C)C(=O)O)cc3)c(CC)nc12 [Example 70, 2-{4-[2-(5-Ethyl-1-methyl-7-oxo-3-propyl-1,7-dihydro-pyrazolo[4,3-d]pyrimidin-6-yl)-ethoxy]-phenoxy}-2-methyl-propionic acid]
20 | 124 to 126 °C | CCCc1nn(C)c2c(=O)n(CCCNc3ccc(OC(C)(C)C(=O)O)cc3)c(CC)nc12 [Example 72, 2-{4-[3-(5-Ethyl-1-methyl-7-oxo-3-propyl-1,7-dihydro-pyrazolo[4,3-d]pyrimidin-6-yl)-propylamino]-phenoxy}-2-methyl-propionic acid]
21 | 124 to 126 °C | CCCc1nn(C)c2c(=O)n(CCCOc3ccc(OC(C)(C)C(=O)O)cc3)c(CC)nc12 [Example 74, 2-{4-[3-(5-Ethyl-1-methyl-7-oxo-3-propyl-1,7-dihydro-pyrazolo[4,3-d]pyrimidin-6-yl)-propoxy]-phenoxy}-2-methyl-propionic acid]
22 | 136 to 138 °C | CCCc1nn(C)c2c(=O)n(CCNc3ccc(OC(C)(C)C(=O)O)cc3)c(CC)nc12 [Example 76, 2-{4-[2-(5-Ethyl-1-methyl-7-oxo-3-propyl-1,7-dihydro-pyrazolo[4,3-d]pyrimidin-6-yl)-ethylamino]-phenoxy}-2-methyl-propionic acid]
23 | 136 to 138 °C | CCCc1nn(C)c2c(=O)n(CCCc3cccc(OC(C)(CC)C(=O)O)c3)c(C)nc12 (stereo not drawn) [Example 87, 2-{3-[3-(1,5-Dimethyl-7-oxo-3-propyl-1,7-dihydro-pyrazolo[4,3-d]pyrimidin-6-yl)-propyl]-phenoxy}-2-methyl-butyric acid]
24 | 132 to 134 °C | CCCc1nn(C)c2c(=O)n(CCOc3ccc(OC4(C(=O)OCC)CCC4)cc3)c(C)nc12 [Example 90, 1-{4-[2-(1,5-Dimethyl-7-oxo-3-propyl-1,7-dihydro-pyrazolo[4,3-d]pyrimidin-6-yl)-ethoxy]-phenoxy}-cyclobutanecarboxylic acid ethyl ester]
25 | 188 to 190 °C | CCCc1nn(C)c2c(=O)n(CCOc3ccc(OC4(C(=O)O)CCC4)cc3)c(C)nc12 [Example 91, 1-{4-[2-(1,5-Dimethyl-7-oxo-3-propyl-1,7-dihydro-pyrazolo[4,3-d]pyrimidin-6-yl)-ethoxy]-phenoxy}-cyclobutanecarboxylic acid]
26 | 147 to 149 °C | CCCc1nn(CC)c2c(=O)n(CCOc3cccc(OC(C)(C)C(=O)O)c3)c(C)nc12 [Example 93, 2-{3-[2-(1-Ethyl-5-methyl-7-oxo-3-propyl-1,7-dihydro-pyrazolo[4,3-d]pyrimidin-6-yl)-ethoxy]-phenoxy}-2-methyl-propionic acid]
27 | 99 to 100 °C | CCCc1nn(C)c2c(=O)n(CCOc3cc(O[C@@](C)(CC)C(=O)O)ccc3Cl)c(C)nc12 [Example 106, S-(−)-2-{4-Chloro-3-[2-(1,5-dimethyl-7-oxo-3-propyl-1,7-dihydro-pyrazolo[4,3-d]pyrimidin-6-yl)-ethoxy]-phenoxy}-2-methyl-butyric acid]
